Experimental data as given in patent US12622910B2, “Inhibitors of Bruton's tyrosine kinase and methods of their use” (Janssen Pharmaceutica NV, priority 2021, dated 2026).

Columns and labels:
Ach (h) = Ach (h) (Homo sapiens, UniProt P22303); test: Receptor panel, Study 2; type: binding
Protocol: (§1) RESULTS AND DISCUSSION—Selectivity—The compound of Formula (III) was evaluated in three selectivity panels to assess the potential for off-target pharmacology (Table 8). […] The kinase off-target profile of The compound of Formula (III) was assessed in a full human wild-type panel using radiometric kinase activity assays (KinaseProfiler™ and IC50Profiler™; Eurofins Scientific) (Table 9; FIG. 23). The compound of Formula (III) inhibited 4/278 kinases >50% at 1 micromolar, identifying BTK and the three other kinases having analogous Cys residues with the potential for covalent inhibition (BMX, TEC, BLK). […]. The cellular kinase selectivity of The compound of Formula (III) was established in native Ramos B cell kinome assays (KiNativ™; ActivX) confirmed BTK as the primary target with inhibition of BLK and TEC inhibition detected (Table 10).

Beta2 (h) = Beta2 (h) (Homo sapiens, UniProt P07550); test: Receptor panel, Study 2; type: binding
Protocol: as §1

CB2 (h) = CB2 (h) (Homo sapiens, UniProt P34972); test: Receptor panel, Study 2; type: binding
Protocol: as §1

NMDA = test: Receptor panel, Study 2; type: binding
Protocol: as §1

PDE4D2 (h) = PDE4D2 (h) (Homo sapiens, UniProt Q08499); test: Receptor panel, Study 2; type: binding
Protocol: as §1

mGluR5 (h) = mGluR5 (h) (Homo sapiens, UniProt P41594); test: Receptor panel, Study 2; type: binding
Protocol: as §1

[1] = Metabolic stability in liver microsomes; type: in vitro ADME, monkey
Protocol: (§2) Additional Data on Preclinical PK Profile—Protein binding of the compound of Formula (III) was studied using an equilibrium dialysis method in plasma from human, cynomolgus monkey, beagle dog, Sprague Dawley rat, CD-1 mouse, and guinea pig at 0.25, 2.5, and 25 μM. […] In human and monkey, the plasma protein binding was concentration dependent. […] Free fraction of the compound of Formula (III) in liver microsomes from various species ranged from 75.1% to 87.9% at 0.25 mg/mL and from 58.9% to 86.5% at 1.0 mg/mL (Table 17). […] In hepatocytes, the compound of Formula (III) turnover followed a similar trend, with T1/2 ranging from 75.3 minutes in monkey to 278.1 minutes in human.

[2] = Metabolic stability in liver microsomes; type: in vitro ADME, dog
Protocol: as §2

[3] = Metabolic stability in hepatocytes; type: in vitro ADME, monkey
Protocol: as §2

human IL-10 = test: Circulating human IL-10 in serum of NSG mice with OCI-LY10 tumors; type: in vivo
Text: FIG. 18 depicts circulating human IL-10 cytokine serum levels of mice treated with the compound of Formula (III). IL-10 cytokine levels are graphed as % normalized to vehicle control IL-10 levels ±SEM. Female NSG mice were implanted SC with OCI-LY10 cells on the right flank on Day 0. After tumors were established 39 days post implantation, mice were randomized into experimental groups and dosed orally with a single dose (n=5/dose level/time point). Serum samples were collected 2, 4, 8, 12, 16 and 24 hours after compound administration.
In Vivo Efficacy in ABC-DLBCL Xenograft and PDX Mouse Models of Lymphoma-To evaluate the effect of the compound of Formula (III) on NFκB signaling in vivo, we analyzed circulating human IL-10 levels in serum of NSG mice implanted with OCI-LY10 DLBCL tumors treated with 0, 1, 3, 10, 30 and 100 mg/kg compound of Formula (III) at 2, 4, 8, 12, 16 and 24 hours after single dose administration. Human IL-10 levels dropped to around 50% of vehicle control 2 hours after dosing, lowering even further after 4 hours to below 20%, 10% and 5% of vehicle control IL-10 levels in 10 mg/kg, 30 mg/kg and 100 mg/kg compound of Formula (III) treatment groups, respectively, and remaining low up to 12 hours. Some rebound to 23% of vehicle control levels for 30 mg/kg and 100 mg/kg and to 39% for the 10 mg/kg dosing group are observed 16 hours after compound administration, while IL-10 levels normalize after 24 hours (FIG. 18).

OCI-LY10 xenografts = test: OCI-LY10 human ABC-DLBCL xenograft efficacy; type: in vivo, female NSG mice; settings: Day 45
Text: FIG. 20 depicts the effect of the compound of Formula (III) on growth of established OCI-LY10 human ABC-DLBCL xenografts in mice PEG400/PVP-VA64, Polyethylene glycol 400/N-vinylpyrrolidone and vinyl acetate 64; SEM, standard error of the mean. Group tumor volumes are graphed as the mean±SEM. Bar below x-axis indicates the treatment period. Groups are plotted while at least ⅔ of the animals remained on the study. Mice were implanted SC on the right flank on Day 0. Tumors were established 33 days post implantation, mice were randomized into experimental groups and dosed orally twice or once daily for 3 weeks (n=10/group).
To evaluate the duration of signaling shutdown and occupancy of BTK protein after compound administration, we determined the amount of free BTK protein in OCI-LY10 DLBCL tumor lysates harvested using an BTK occupancy assay. […] BTK protein occupancy levels remained high with 71%, 94% and 96%, respectively, at 12 hours and 70%, 91% and 85%, respectively after 24 hours. (FIG. 19). The antitumor efficacy of compound of Formula (III) was assessed in mice bearing established SC OCI-LY10 human CD79b mutant DLBCL xenografts in female NSG mice, dosed either once (QD) or twice (BID) a day. Analysis of tumor growth inhibition was performed 14 days into the 21-day treatment period (Day 45) as that was the last day when 2/3 of the vehicle controls remained on the study. Compound of Formula (III) induced tumor growth inhibition in the OCI-LY10 model at all dose levels. […] Taken together, the in vivo data support a first in-human trial of the compound of Formula (III) in combination with Venetoclax in patients with B cell lymphomas.

Chain of Beta2 (h) (P07550 whole entry): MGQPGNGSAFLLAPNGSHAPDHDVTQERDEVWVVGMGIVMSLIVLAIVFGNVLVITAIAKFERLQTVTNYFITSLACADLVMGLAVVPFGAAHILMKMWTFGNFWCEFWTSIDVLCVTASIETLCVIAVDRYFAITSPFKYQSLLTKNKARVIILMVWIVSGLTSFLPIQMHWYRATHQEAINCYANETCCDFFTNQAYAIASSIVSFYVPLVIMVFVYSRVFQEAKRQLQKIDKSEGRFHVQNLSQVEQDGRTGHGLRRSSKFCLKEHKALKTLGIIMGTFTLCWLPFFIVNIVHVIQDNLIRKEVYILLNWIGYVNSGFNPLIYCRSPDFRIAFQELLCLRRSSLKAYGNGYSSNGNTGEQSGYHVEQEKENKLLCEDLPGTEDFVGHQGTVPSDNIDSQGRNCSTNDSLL
Chain of mGluR5 (h) (P41594 21-1212): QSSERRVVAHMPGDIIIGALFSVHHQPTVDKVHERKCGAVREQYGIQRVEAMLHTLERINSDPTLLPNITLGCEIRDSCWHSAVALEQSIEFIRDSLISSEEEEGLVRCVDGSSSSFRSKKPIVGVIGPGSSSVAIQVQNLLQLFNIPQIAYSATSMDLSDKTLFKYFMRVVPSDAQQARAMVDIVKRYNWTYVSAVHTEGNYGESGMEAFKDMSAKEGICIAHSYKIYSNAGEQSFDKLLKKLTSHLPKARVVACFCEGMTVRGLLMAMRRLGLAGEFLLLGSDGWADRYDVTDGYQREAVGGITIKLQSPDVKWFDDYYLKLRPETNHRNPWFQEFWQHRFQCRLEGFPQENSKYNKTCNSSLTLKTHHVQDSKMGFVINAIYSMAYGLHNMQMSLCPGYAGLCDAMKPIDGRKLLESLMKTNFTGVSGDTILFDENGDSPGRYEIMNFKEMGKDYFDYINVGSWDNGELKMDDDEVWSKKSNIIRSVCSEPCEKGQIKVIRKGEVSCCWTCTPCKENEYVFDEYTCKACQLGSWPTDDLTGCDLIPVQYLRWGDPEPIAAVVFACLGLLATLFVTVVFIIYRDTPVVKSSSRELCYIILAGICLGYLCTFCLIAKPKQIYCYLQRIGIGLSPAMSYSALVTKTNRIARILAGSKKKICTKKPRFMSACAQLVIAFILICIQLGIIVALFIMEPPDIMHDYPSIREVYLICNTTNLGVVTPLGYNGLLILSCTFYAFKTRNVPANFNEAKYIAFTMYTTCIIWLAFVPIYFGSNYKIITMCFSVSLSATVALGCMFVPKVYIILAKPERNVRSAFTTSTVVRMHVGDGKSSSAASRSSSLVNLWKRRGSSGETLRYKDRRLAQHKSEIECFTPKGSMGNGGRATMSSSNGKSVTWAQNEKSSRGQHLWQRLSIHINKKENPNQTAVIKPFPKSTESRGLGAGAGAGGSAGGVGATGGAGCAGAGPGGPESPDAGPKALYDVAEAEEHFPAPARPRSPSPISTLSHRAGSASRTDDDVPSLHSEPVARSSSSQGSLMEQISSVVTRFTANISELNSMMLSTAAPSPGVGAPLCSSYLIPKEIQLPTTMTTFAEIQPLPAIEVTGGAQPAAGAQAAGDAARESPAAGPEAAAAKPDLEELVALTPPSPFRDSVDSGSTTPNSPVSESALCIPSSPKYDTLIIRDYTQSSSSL
Chain of PDE4D2 (h) (Q08499 303-809 limits assumed): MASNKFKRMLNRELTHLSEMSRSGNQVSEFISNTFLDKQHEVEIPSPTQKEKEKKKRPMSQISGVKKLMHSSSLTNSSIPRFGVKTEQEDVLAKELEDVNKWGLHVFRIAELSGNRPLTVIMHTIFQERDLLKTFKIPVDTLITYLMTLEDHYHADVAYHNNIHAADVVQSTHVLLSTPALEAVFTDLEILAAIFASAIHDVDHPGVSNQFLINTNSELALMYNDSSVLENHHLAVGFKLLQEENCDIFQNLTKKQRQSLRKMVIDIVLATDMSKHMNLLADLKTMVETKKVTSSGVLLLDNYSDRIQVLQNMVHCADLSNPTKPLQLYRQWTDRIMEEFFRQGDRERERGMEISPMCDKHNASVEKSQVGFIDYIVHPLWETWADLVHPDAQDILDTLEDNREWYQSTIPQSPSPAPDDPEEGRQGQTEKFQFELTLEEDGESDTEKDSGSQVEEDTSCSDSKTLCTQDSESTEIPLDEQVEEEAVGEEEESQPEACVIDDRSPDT
Chain of CB2 (h) (P34972 whole entry): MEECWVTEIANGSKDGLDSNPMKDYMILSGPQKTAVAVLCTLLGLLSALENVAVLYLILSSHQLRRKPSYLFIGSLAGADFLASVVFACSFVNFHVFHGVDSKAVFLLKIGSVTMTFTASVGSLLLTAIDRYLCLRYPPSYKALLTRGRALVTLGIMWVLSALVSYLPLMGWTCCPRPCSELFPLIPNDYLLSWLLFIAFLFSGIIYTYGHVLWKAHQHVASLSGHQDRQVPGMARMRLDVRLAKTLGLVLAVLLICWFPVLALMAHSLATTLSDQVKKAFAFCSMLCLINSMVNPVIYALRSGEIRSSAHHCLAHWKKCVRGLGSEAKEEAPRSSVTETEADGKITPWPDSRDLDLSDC
Chain of Ach (h) (P22303 32-614): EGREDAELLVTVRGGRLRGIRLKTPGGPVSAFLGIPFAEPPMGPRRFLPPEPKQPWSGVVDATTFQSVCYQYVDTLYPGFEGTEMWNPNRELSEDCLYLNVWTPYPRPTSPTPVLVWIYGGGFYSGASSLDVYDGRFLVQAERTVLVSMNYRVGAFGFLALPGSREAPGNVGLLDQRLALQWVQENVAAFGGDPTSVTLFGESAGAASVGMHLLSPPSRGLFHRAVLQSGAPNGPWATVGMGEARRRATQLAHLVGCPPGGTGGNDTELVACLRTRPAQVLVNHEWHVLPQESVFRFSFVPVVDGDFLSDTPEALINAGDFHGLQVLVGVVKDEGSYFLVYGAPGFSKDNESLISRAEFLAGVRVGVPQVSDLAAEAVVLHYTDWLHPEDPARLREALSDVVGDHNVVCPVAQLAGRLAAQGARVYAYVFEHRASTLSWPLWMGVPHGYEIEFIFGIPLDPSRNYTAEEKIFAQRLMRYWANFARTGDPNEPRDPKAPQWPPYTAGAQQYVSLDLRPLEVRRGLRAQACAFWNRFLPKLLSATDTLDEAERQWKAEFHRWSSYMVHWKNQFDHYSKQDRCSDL

C=CC(=O)N[C@H]1CCC[C@H]1NC(=O)c1sc2nccc3c2c1NC(=O)N3c1cnc(CC(C)C)cc1C (atropisomer, axis not shown) [compound of Formula (III), N-((1R,2S)-2-Acrylamidocyclopentyl)-5-(S)-(6-isobutyl-4-methylpyridin-3-yl)-4-oxo-4,5-dihydro-3H-1-thia-3,5,8-triazaacenaphthylene-2-carboxamide]
inhibition at 10 µM (Ach (h)): 11% | inhibition at 10 µM (Beta2 (h)): < 10% | inhibition at 10 µM (CB2 (h)): < 10% | % Inhibition at 10 μM (NMDA): — (no inhibition observed) | inhibition at 10 µM (PDE4D2 (h)): < 10% | inhibition at 10 µM (mGluR5 (h)): < 10% | Extraction Ratio, liver microsomes ([1]; Monkey): 0.65 | microsomal CLint ([1]; monkey, liver microsomes): 61 µL/min/mg | half-life ([1]; monkey, liver microsomes, read-out: T1/2, liver microsomes): 11.4 min | Extraction Ratio, liver microsomes ([2]; Dog): 0.65 | microsomal CLint ([2]; dog, liver microsomes): 40.6 µL/min/mg | half-life ([2]; dog, liver microsomes, read-out: T1/2, liver microsomes): 17.1 min | Extraction Ratio, hepatocytes [3]: 0.78 | hepatocyte CLint ([3]; monkey, hepatocytes): 66.3 µL/min/1e6 cells | half-life ([3]; monkey, hepatocytes, read-out: T1/2, hepatocytes): 75.3 min | human IL-10, % of vehicle control (human IL-10; 10 mg/kg, 4 hours): below 20% | human IL-10, % of vehicle control (human IL-10; 10 mg/kg, 16 hours): 39% | human IL-10, % of vehicle control (human IL-10; 30 mg/kg, 4 hours): < 10% | human IL-10, % of vehicle control (human IL-10; 30 mg/kg, 16 hours): 23% | human IL-10, % of vehicle control (human IL-10; 100 mg/kg, 4 hours): < 5% | human IL-10, % of vehicle control (human IL-10; 100 mg/kg, 16 hours): 23% | human IL-10, % of vehicle control (human IL-10; 2 hours after single oral dose): around 50% | TGI (OCI-LY10 xenografts; 5 mg/kg BID): 26% | ΔTGI (OCI-LY10 xenografts; 5 mg/kg BID): 34% | TGI (OCI-LY10 xenografts; 10 mg/kg QD): 24% | ΔTGI (OCI-LY10 xenografts; 10 mg/kg QD): 30% | TGI (OCI-LY10 xenografts; 15 mg/kg BID): 51% | ΔTGI (OCI-LY10 xenografts; 15 mg/kg BID): 66% | TGI (OCI-LY10 xenografts; 30 mg/kg QD): 35% | ΔTGI (OCI-LY10 xenografts; 30 mg/kg QD): 45% | TGI (OCI-LY10 xenografts; 50 mg/kg BID): 78% | ΔTGI (OCI-LY10 xenografts; 50 mg/kg BID): 102% | TGI (OCI-LY10 xenografts; 100 mg/kg QD): 51% | ΔTGI (OCI-LY10 xenografts; 100 mg/kg QD): 65%
